Test results taken from the NIST ThermoML archive (doi:10.1021/je400858t).
± gives the expanded uncertainty stated by the source.

Experiments:
[1] = for thermal conductivity / mass density / viscosity: 101.33 kPa, Liquid; for thermal conductivity: Parallel plate method; for Glass transition temperature: DTA; for mass density: Vibrating tube method; for viscosity: Cone and plate viscometry
[2] = molar heat capacity at constant pressure; conditions: 101.33 kPa, Liquid, Small sample (50 mg) DSC

| Compound | thermal conductivity ([1]; 300 K) | thermal conductivity ([1]; 375 K) | Glass transition temperature [1] | viscosity ([1]; 283 K) | viscosity ([1]; 293 K) | viscosity ([1]; 298 K) | viscosity ([1]; 303 K) | viscosity ([1]; 313 K) | viscosity ([1]; 323 K) | viscosity ([1]; 333 K) | viscosity ([1]; 343 K) | further results |
| --- | --- | --- | --- | --- | --- | --- | --- | --- | --- | --- | --- | --- |
| CCn1cc[n+](C)c1.N#C[S-] [1-ethyl-3-methylimidazolium thiocyanate] | 0.21 ± 0.02 W/m/K | 0.21 ± 0.02 W/m/K | -94 ± 2 °C |  |  |  |  |  |  |  |  |  |
| CCCCCC[n+]1ccn(C)c1.O=S(=O)([N-]S(=O)(=O)C(F)(F)F)C(F)(F)F | 0.12 ± 0.01 W/m/K | 0.12 ± 0.01 W/m/K |  |  |  |  |  |  |  |  |  | mass density ([1]; 283 K): 1385.63 ± 4.2 kg/m3; mass density ([1]; 293 K): 1376.5 ± 4.2 kg/m3; mass density ([1]; 303 K): 1367.38 ± 4.1 kg/m3; mass density ([1]; 313 K): 1358.3 ± 4.1 kg/m3; mass density ([1]; 323 K): 1349.27 ± 4.1 kg/m3; mass density ([1]; 333 K): 1340.34 ± 4 kg/m3; mass density ([1]; 343 K): 1331.41 ± 4 kg/m3; mass density ([1]; 353 K): 1322.54 ± 4 kg/m3; mass density ([1]; 363 K): 1313.73 ± 4 kg/m3 |
| CCOP(=O)([O-])OCC.CCn1cc[n+](C)c1 [1-ethyl-3-methylimidazolium diethyl phosphate] | 0.19 ± 0.02 W/m/K | 0.19 ± 0.02 W/m/K | -66 ± 2 °C | 1280 ± 150 mPa·s | 580 ± 65 mPa·s | 410 ± 44 mPa·s | 300 ± 30 mPa·s | 168 ± 17 mPa·s | 101 ± 10 mPa·s | 66 ± 7 mPa·s | 45 ± 5 mPa·s | molar heat capacity at constant pressure ([2]; 298 K): 459.81 ± 47 J/K/mol; molar heat capacity at constant pressure ([2]; 303 K): 465.1 ± 47 J/K/mol; molar heat capacity at constant pressure ([2]; 308 K): 467.74 ± 47 J/K/mol; molar heat capacity at constant pressure ([2]; 313 K): 470.38 ± 48 J/K/mol; molar heat capacity at constant pressure ([2]; 318 K): 475.67 ± 48 J/K/mol; molar heat capacity at constant pressure ([2]; 323 K): 478.31 ± 48 J/K/mol; molar heat capacity at constant pressure ([2]; 328 K): 480.95 ± 49 J/K/mol; molar heat capacity at constant pressure ([2]; 333 K): 486.24 ± 49 J/K/mol; molar heat capacity at constant pressure ([2]; 338 K): 488.88 ± 49 J/K/mol; molar heat capacity at constant pressure ([2]; 343 K): 494.16 ± 50 J/K/mol |
| CCn1cc[n+](C)c1.O=C([O-])C(F)(F)F [1-ethyl-3-methylimidazolium trifluoroacetate] | 0.17 ± 0.01 W/m/K | 0.17 ± 0.01 W/m/K |  |  |  |  |  |  |  |  |  |  |
| CCn1cc[n+](C)c1.CS(=O)(=O)[O-] [1-ethyl-3-methylimidazolium methanesulfonate] | 0.21 ± 0.02 W/m/K | 0.21 ± 0.02 W/m/K | -62 ± 2 °C | 450 ± 49 mPa·s | 210 ± 22 mPa·s | 155 ± 16 mPa·s | 117 ± 12 mPa·s | 70 ± 7 mPa·s | 45 ± 5 mPa·s | 31 ± 3 mPa·s | 23 ± 2 mPa·s |  |
| CCn1cc[n+](C)c1.O=S(=O)([O-])C(F)(F)F [1-ethyl-3-methylimidazolium trifluoromethanesulfonate] | 0.16 ± 0.01 W/m/K | 0.16 ± 0.01 W/m/K |  |  |  |  |  |  |  |  |  |  |
